Laboratory results reported in the supplement of paper PMC10307832.

Key:
Assay in all cases: relative viability (nuclei count vs DMSO), 5 days (fraction); higher = more cells survive
Sorafenib + Olaparib = compound: CNC(=O)c1cc(Oc2ccc(NC(=O)Nc3ccc(Cl)c(C(F)(F)F)c3)cc2)ccn1 [Sorafenib] + O=C(c1cc(Cc2n[nH]c(=O)c3ccccc23)ccc1F)N1CCN(C(=O)C2CC2)CC1 [Olaparib] (partner 8 µM)
Summary of the method: (§1)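 Relative viability divides the nuclei count in treated wells by that in vehicle wells. Lung cancer cell lines were seeded in 1536-well plates, dosed by pin tool the next day, and fixed and stained after 5 days in one step with final 0.05% Triton X-100, 1% formaldehyde and 1 ug/ml Hoechst. Dosing was a single drug or a fixed anchor-drug dose plus five library-drug doses (not always all listed) in √10 steps, and values are medians of duplicate plates imaged at 4×.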

Sorafenib + Pictilisib = compound: CNC(=O)c1cc(Oc2ccc(NC(=O)Nc3ccc(Cl)c(C(F)(F)F)c3)cc2)ccn1 [Sorafenib] + CS(=O)(=O)N1CCN(Cc2cc3nc(-c4cccc5[nH]ncc45)nc(N4CCOCC4)c3s2)CC1 [Pictilisib] (partner 1 µM)
Summary of the method: as §1

Sorafenib + Bortezomib = compound: CNC(=O)c1cc(Oc2ccc(NC(=O)Nc3ccc(Cl)c(C(F)(F)F)c3)cc2)ccn1 [Sorafenib] + CC(C)C[C@H](NC(=O)[C@H](Cc1ccccc1)NC(=O)c1cnccn1)B(O)O [Bortezomib] (partner 0.002 µM)
Summary of the method: as §1

Sorafenib + Pemetrexed = compound: CNC(=O)c1cc(Oc2ccc(NC(=O)Nc3ccc(Cl)c(C(F)(F)F)c3)cc2)ccn1 [Sorafenib] + Nc1nc2[nH]cc(CCc3ccc(C(=O)N[C@@H](CCC(=O)O)C(=O)O)cc3)c2c(=O)[nH]1 [Pemetrexed] (partner 0.2 µM)
Summary of the method: as §1

Sorafenib + Palbociclib = compound: CNC(=O)c1cc(Oc2ccc(NC(=O)Nc3ccc(Cl)c(C(F)(F)F)c3)cc2)ccn1 [Sorafenib] + CC(=O)c1c(C)c2cnc(Nc3ccc(N4CCNCC4)cn3)nc2n(C2CCCC2)c1=O [Palbociclib] (partner 0.5 µM)
Summary of the method: as §1

Cell Line	relative viability (Sorafenib + Olaparib; first compound 0.08 µM)	relative viability (Sorafenib + Olaparib; first compound 0.253 µM)	relative viability (Sorafenib + Olaparib; first compound 2.53 µM)	relative viability (Sorafenib + Olaparib; first compound 8 µM)	relative viability (Sorafenib + Pictilisib; first compound 0.08 µM)	relative viability (Sorafenib + Pictilisib; first compound 0.253 µM)	relative viability (Sorafenib + Pictilisib; first compound 2.53 µM)	relative viability (Sorafenib + Pictilisib; first compound 8 µM)	relative viability (Sorafenib + Bortezomib; first compound 0.08 µM)	relative viability (Sorafenib + Bortezomib; first compound 2.53 µM)	relative viability (Sorafenib + Bortezomib; first compound 8 µM)	relative viability (Sorafenib + Pemetrexed; first compound 0.08 µM)	relative viability (Sorafenib + Pemetrexed; first compound 0.253 µM)	relative viability (Sorafenib + Pemetrexed; first compound 2.53 µM)	relative viability (Sorafenib + Pemetrexed; first compound 8 µM)	relative viability (Sorafenib + Palbociclib; first compound 0.08 µM)	relative viability (Sorafenib + Palbociclib; first compound 0.253 µM)	relative viability (Sorafenib + Palbociclib; first compound 2.53 µM)	relative viability (Sorafenib + Palbociclib; first compound 8 µM)	relative viability (Sorafenib + Bortezomib; first compound 0.253 µM)
NCI-H838	0.776	0.744	0.735	0.215	0.516	0.412	0.77	0.38	0.875	1.15	0.651	0.277	0.244	0.252	0.16	0.25	0.223	0.286	0.158	–
NCI-H1355	–	0.753	0.685	0.411	0.444	0.465	0.45	0.346	1.15	1.14	1.15	1.04	0.953	1.02	0.963	0.421	0.41	0.431	0.39	1.05
NCI-H1437	0.633	0.585	0.493	0.254	0.483	0.393	0.364	0.238	0.629	0.59	–	0.335	0.312	0.268	0.184	0.324	0.256	0.304	0.246	0.513
NCI-H1650	0.684	0.741	0.707	0.643	0.691	0.529	0.71	0.308	0.239	0.225	0.212	0.405	0.454	0.531	0.334	0.363	0.493	0.401	0.26	0.217
NCI-H1651	0.18	0.174	0.187	0.178	0.688	0.517	0.555	0.445	0.995	0.92	0.801	0.575	0.601	0.611	0.511	0.556	0.52	0.533	0.516	0.855
NCI-H1666	0.785	0.765	0.721	–	0.497	0.407	0.451	0.331	–	0.851	–	0.916	0.856	–	0.62	0.602	0.566	0.634	0.717	0.66
NCI-H1734	0.609	0.541	0.563	0.601	0.465	0.469	0.471	0.248	1.01	0.885	0.346	0.431	0.415	–	0.374	0.376	0.329	0.37	0.275	1.14
NCI-H1755	0.912	0.797	0.856	0.748	0.466	0.422	0.417	0.263	0.921	0.988	0.689	–	0.385	0.419	0.355	0.482	–	0.461	–	0.945
NCI-H1792	0.645	0.416	0.347	0.179	0.34	0.23	0.278	0.39	1.02	0.958	0.92	0.97	0.527	0.578	0.567	0.722	0.684	0.646	0.654	0.957
NCI-H1915	0.283	0.226	0.266	0.271	0.875	0.911	0.958	0.866	1.01	0.923	0.99	0.423	0.45	0.433	0.504	0.54	0.574	0.581	0.413	0.766
NCI-H1975	0.936	0.779	0.669	0.353	0.312	0.308	0.376	0.286	0.404	0.445	0.201	0.3	0.285	0.294	0.209	0.712	0.49	0.656	0.311	0.375
NCI-H1993	1.12	1.2	1.22	0.751	0.833	0.788	0.707	0.677	1.6	1.24	1.07	0.566	0.597	0.528	0.43	0.662	0.656	0.751	0.565	0.994
NCI-H2009	0.621	0.533	0.524	0.556	0.866	0.621	0.752	0.265	0.898	0.912	0.522	1.02	0.909	0.83	0.959	0.275	0.115	0.21	0.198	0.689
NCI-H2023	0.45	0.477	0.465	0.115	0.301	0.269	0.263	0.181	1.2	0.945	0.319	0.267	0.252	0.226	0.121	0.49	0.444	0.435	0.106	1.02
NCI-H2085	0.763	0.851	1.01	0.761	0.541	0.444	0.549	0.481	1.09	1.01	0.91	1.02	0.98	1.15	0.762	0.442	0.491	0.51	0.497	0.824
NCI-H2087	0.717	0.566	0.501	0.116	1.02	0.787	0.609	0.349	0.76	0.849	0.454	0.694	0.622	0.61	0.239	0.245	0.209	0.15	0.159	0.708
